Results reported in patent publication US11925624B2, “Methods of administering anti-fibrotic therapy” (GENENTECH, INC., priority 2016, dated 2024).
Where “and” joins values, the source holds several entries; their conditions need not be identical. Identical values can stand only once. Like-named read-outs stand apart in the source and are kept apart here.

How the values were obtained:
[1] = Phase 1 multiple ascending dose (Part B) pharmacokinetics after low-fat meal; assay type: in vivo, human; settings: for Tmax: median; for AUC: read-out: AUC0-τ; for CL renal: urine and plasma
Experimental: In Part B, 24 subjects were studied in 3 groups (Groups B1 to B3), with each group consisting of 8 subjects (6 received Compound I and 2 received placebo). The dose, dosing frequency, duration, and dietary state for Part B were determined based on review of available PK, safety, and tolerability data from Parts A and B.
All doses in Part B were administered following administration of a low-fat meal. In Groups B1 and B3, Compound I (200 mg for Group B1, 275 mg for Group B3) or placebo was administered twice daily (BID) on Days 1 to 6 and once on the morning of Day 7. In Group B2, subjects received QD dosing with 525 mg Compound I or placebo on Days 1 to 7.
In Part B, each subject participated in 1 treatment period. Subjects resided at the CRU from Day −1 (the day before dosing) until the morning of Day 10 (72 hours after the final dose on Day 7). All subjects returned for a Follow-up visit between 5 to 14 days after their final dose.
In Part B, all doses were administered after a low-fat meal. On Day 1 and Day 7 (days with post-dose PK sampling), subjects started a low-fat breakfast 30 minutes prior to dosing and were given 15 minutes to complete their meal; dosing occurred approximately 15 minutes after completion of breakfast. On dosing Days 2 through 6, subjects were to complete their breakfast within an hour prior to dosing. For the evening doses, subjects were given a standard meal and completed their meal between 1 and 2 hours prior to dosing.

[2] = Serum creatinine (Scr) change from baseline, MAD study (Part B); assay type: in vivo, human; settings: for Number of subjects with change in Scr <0.3 mg/dL from baseline / Number of subjects with change in Scr ≥0.3 mg/dL from baseline / Number of subjects with percent change in Scr <30% from baseline / Number of subjects with percent change in Scr ≥30% from baseline: MAD
Experimental: In addition to the measurement of various PK parameters in both parts of the study, the changes in the subjects' serum creatinine levels were also evaluated in this study. Tables 6A and 6B summarize the change in level and percent change in serum creatinine from averaged screening and pre-dosing values for the subjects in SAD study in each treatment group, as applicable. Tables 7A and 7B summarize the change in level and percent change in scrum creatinine from averaged screening and pre-dosing values for the subjects in MAD study. […] In Part B of the study, 2 subjects (275 mg BID) experienced clinically significant TEAEs of increased creatinine on day 5. The mean change in serum creatinine from a combined screening and pre-dose baseline in the MAD part of the study is illustrated in FIG. 1. In addition, the mean change in creatinine level from combined screening and pre-dose level in the MAD part of the study is illustrated in FIG. 2.

[3] = 200 mg BID (B1), Day 1, low-fat meal
[4] = 200 mg BID (B1), Day 7, low-fat meal
[5] = 275 mg BID (B3), Day 1, low-fat meal
[6] = 275 mg BID (B3), Day 7, low-fat meal
[7] = 525 mg QD (B2), Day 1, low-fat meal
[8] = 525 mg QD (B2), Day 7, low-fat meal
[9] = human, plasma, oral, 200 mg, 200 mg BID (B1), Day 1, low-fat meal
[10] = human, plasma, oral, 200 mg, 200 mg BID (B1), Day 7, low-fat meal
[11] = human, plasma, oral, 275 mg, 275 mg BID (B3), Day 1, low-fat meal
[12] = human, plasma, oral, 275 mg, 275 mg BID (B3), Day 7, low-fat meal
[13] = human, plasma, oral, 525 mg, 525 mg QD (B2), Day 1, low-fat meal
[14] = human, plasma, oral, 525 mg, 525 mg QD (B2), Day 7, low-fat meal
[15] = human, plasma, oral, 200 mg BID (B1), Day 7, low-fat meal
[16] = human, plasma, oral, 275 mg BID (B3), Day 7, low-fat meal
[17] = human, plasma, oral, 525 mg QD (B2), Day 7, low-fat meal

In the case of `Cn1cc(-c2cn(-c3ccc(OC(F)(F)F)cc3)c(=O)c3ncn(C)c23)cn1` [Compound I], the “AUC0-τ(norm)” value [1, 3] is reported as 11300 hr*ng/mL/(mg/kg), the Ae0-12 [1, 3] is reported as 105 mg and the “Cmax (norm)” value [1, 3] is reported as 1970 ng/mL/(mg/kg). For the same compound, the fe0-12 [1, 3] was 52.5%, the “AUC0-τ(norm)” value [1, 4] was 12600 hr*ng/mL/(mg/kg) and the Ae0-12 [1, 4] was 142 mg. The CL/F [1, 4] was 85.9 mL/min, the “CL/F(norm)” value [1, 4] was 1.32 (mL/min)/kg and the “Cmax (norm)” value [1, 4] was 1970 ng/mL/(mg/kg). For the same compound, the “RAAUC (accumulation ratio based on AUC0-τ)” value [1, 4] was 1.1 and 1.11, the fe0-12 [1, 4] was 71.2% and the λZ [1, 4] was 0.142 h⁻¹. The “Mean pre-dose (trough) Compound I concentration” value (shortened to “Mean pre-dose”) ([1]; 200 mg BID, Day 7) was 1680 ng/mL, the “AUC0-τ(norm)” value [1, 5] was 9560 hr*ng/mL/(mg/kg) and the Ae0-12 [1, 5] was 162 mg. The “Cmax (norm)” value [1, 5] was 1540 ng/mL/(mg/kg), the fe0-12 [1, 5] was 58.9% and the “AUC0-τ(norm)” value [1, 6] was 14300 hr*ng/mL/(mg/kg). The Ae0-12 [1, 6] was 190 mg, the CL/F [1, 6] was 81.1 mL/min and the “CL/F(norm)” value [1, 6] was 1.16 (mL/min)/kg. For the same compound, the “Cmax (norm)” value [1, 6] was 1900 ng/mL/(mg/kg), the “RAAUC (accumulation ratio based on AUC0-τ)” value [1, 6] was 1.5 and the fe0-12 [1, 6] was 69.1%. For the same compound, the λZ [1, 6] was 0.123 h⁻¹, the “Fold increase in geometric mean Cmax” value ([1]; 275 mg BID vs 200 mg BID (1.4-fold increase in dose)) was 1.2 fold and the “Mean pre-dose” value ([1]; 275 mg BID, Day 7) was 3260 ng/mL. For the same compound, the “AUC0-τ(norm)” value [1, 7] was 10500 hr*ng/mL/(mg/kg), the Ae0-12 [1, 7] was 171 mg and the Ae0-24 [1, 7] was 242 mg. The “Cmax (norm)” value [1, 7] was 1140 ng/mL/(mg/kg), the fe0-12 [1, 7] was 32.6% and the fe0-24 [1, 7] was 46.1%. For the same compound, the “AUC0-τ(norm)” value [1, 8] was 13100 hr*ng/mL/(mg/kg), the Ae0-12 [1, 8] was 185 mg and the Ae0-24 [1, 8] was 284 mg. The CL/F [1, 8] was 89.4 mL/min, the “CL/F(norm)” value [1, 8] was 1.27 (mL/min)/kg and the “Cmax (norm)” value [1, 8] was 1260 ng/mL/(mg/kg). The “RAAUC (accumulation ratio based on AUC0-τ)” value [1, 8] was 1.3 and 1.25, the fe0-12 [1, 8] was 35.3% and the fe0-24 [1, 8] was 54.0%. For the same compound, the λZ [1, 8] was 0.0544 h⁻¹, the “Fold increase in geometric mean AUC0-∞” value ([1]; 525 mg QD vs 200 mg BID (2.6-fold increase in dose)) was 2.5 fold and the “Mean pre-dose” value ([1]; 525 mg QD, Day 7) was 897 ng/mL. The “Time to steady-state plasma concentrations” value ([1]; 200 and 275 mg BID and 525 mg QD) was no more than 2 days, the Tmax at 1 day ([1]; human, plasma, oral, 200 mg BID, 275 mg BID, 525 mg QD, Day 1, read-out: Median tmax, range across regimens) was 2.3 to 3.5 h and the Tmax at 7 day ([1]; human, plasma, oral, 200 mg BID, 275 mg BID, 525 mg QD, Day 7, read-out: Median tmax, range across regimens) was 2.8 to 4 h. The Cmax [1, 9] was 6080 ng/mL, the Tmax [1, 9] was 3 h and the AUC [1, 9] was 34900 ng·h/mL. The Cmax [1, 10] was 6060 ng/mL, the Tmax [1, 10] was 4 h and the AUC [1, 10] was 38800 ng·h/mL. It also gave a Cmax [1, 11] of 6070 ng/mL, a Tmax [1, 11] of 2.28 h and an AUC [1, 11] of 37700 ng·h/mL. It also gave a Cmax [1, 12] of 7500 ng/mL, a Tmax [1, 12] of 2.75 h and an AUC [1, 12] of 56500 ng·h/mL. For the same compound, the Cmax [1, 13] was 8510 ng/mL, the Tmax [1, 13] was 3.5 h and the AUC [1, 13] was 78100 ng·h/mL. The Cmax [1, 14] was 9440 ng/mL, the Tmax [1, 14] was 3.53 h and the AUC [1, 14] was 97800 ng·h/mL. It also gave a half-life [1, 15] of 4.89 h, a half-life at 7 day [1, 15] of 4.9 h and a Vd/F ([1]; human, plasma, oral, 200 mg BID (B1), Day 7, low-fat meal, read-out: Vz/F) of 36.1 L. The Vd/F ([1]; human, plasma, oral, 200 mg BID (B1), Day 7, low-fat meal, read-out: Vz/F(norm)) was 0.576 L/kg, the half-life [1, 16] was 5.64 h and the half-life at 7 day [1, 16] was 5.6 h. The Vd/F ([1]; human, plasma, oral, 275 mg BID (B3), Day 7, low-fat meal, read-out: Vz/F) was 39.6 L, the Vd/F ([1]; human, plasma, oral, 275 mg BID (B3), Day 7, low-fat meal, read-out: Vz/F(norm)) was 0.568 L/kg and the half-life [1, 17] was 6.25 h. It also gave a half-life at 7 day [1, 17] of 6.3 h, a Vd/F ([1]; human, plasma, oral, 525 mg QD (B2), Day 7, low-fat meal, read-out: Vz/F) of 98.6 L and a Vd/F ([1]; human, plasma, oral, 525 mg QD (B2), Day 7, low-fat meal, read-out: Vz/F(norm)) of 1.4 L/kg. The CL renal ([1]; human, oral, 200 mg, 200 mg BID (B1), Day 1, low-fat meal) was 50.2 mL/min, the CL renal ([1]; human, oral, 200 mg, 200 mg BID (B1), Day 7, low-fat meal) was 61.2 mL/min and the CL renal ([1]; human, oral, 275 mg, 275 mg BID (B3), Day 1, low-fat meal) was 71.6 mL/min. The CL renal ([1]; human, oral, 275 mg, 275 mg BID (B3), Day 7, low-fat meal) was 56.1 mL/min, the CL renal ([1]; human, oral, 525 mg, 525 mg QD (B2), Day 1, low-fat meal) was 51.7 mL/min and the CL renal ([1]; human, oral, 525 mg, 525 mg QD (B2), Day 7, low-fat meal) was 48.3 mL/min. For the same compound, the “Subjects with mean change from baseline ≥0.3 mg/dL in Scr” value ([2]; MAD study, all subjects) was 25%, the “Subjects with mean percent change from baseline ≥30% in Scr” value ([2]; MAD study, all subjects) was 50% and the “Number of subjects with change in Scr <0.3 mg/dL from baseline” value ([2]; 400 mg (200 mg BID)) was 5. For the same compound, the “Number of subjects with change in Scr ≥0.3 mg/dL from baseline” value ([2]; 400 mg (200 mg BID)) was 1, the “Number of subjects with percent change in Scr <30% from baseline” value ([2]; 400 mg (200 mg BID)) was 1 and the “Number of subjects with percent change in Scr ≥30% from baseline” value ([2]; 400 mg (200 mg BID)) was 5. The “Number of subjects with change in Scr <0.3 mg/dL from baseline” value ([2]; 525 mg) was 5, the “Number of subjects with change in Scr ≥0.3 mg/dL from baseline” value ([2]; 525 mg) was 1 and the “Number of subjects with percent change in Scr <30% from baseline” value ([2]; 525 mg) was 3. For the same compound, the “Number of subjects with percent change in Scr ≥30% from baseline” value ([2]; 525 mg) was 3, the “Number of subjects with change in Scr <0.3 mg/dL from baseline” value ([2]; 550 mg (275 mg BID)) was 2 and the “Number of subjects with change in Scr ≥0.3 mg/dL from baseline” value ([2]; 550 mg (275 mg BID)) was 4. The “Number of subjects with percent change in Scr <30% from baseline” value ([2]; 550 mg (275 mg BID)) was 2, the “Number of subjects with percent change in Scr ≥30% from baseline” value ([2]; 550 mg (275 mg BID)) was 4 and the “Subjects with increases over the upper limit of normal (ULN) in serum creatinine” value ([2]; Part B (MAD), across all dose levels) was “about 56%”. For the same compound, the “Subjects with clinically significant TEAEs of increased creatinine” value ([2]; Part B, 275 mg BID, day 5) was 2 subjects.
